The values that follow come from ChEMBL document CHEMBL1137133, “Defining determinant molecular properties for the blockade of the apamin-sensitive SKCa channel in guinea-pig hepatocytes: the influence of polarizability and molecular geometry” (Bioorg Med Chem Lett, 2004).

A word on the IC50: it is the midpoint of a concentration-inhibition curve. Lower therefore signals higher potency. The Ki is the equilibrium dissociation constant of an inhibitor or competing ligand from its target. A low value points to a stronger hold on the target.

The nature of the first assay: Inhibition of apamin-sensitive SKCa channel of guinea-pig hepatocytes. The conditions noted are these: hepatocyte. The format is cell-based, Cavia porcellus.
Turning to `COc1ccc(CC2c3cc(OC)c(OC)cc3CC[N+]2(C)CCC(=O)OCCCCCOC(=O)CC[N+]2(C)CCc3cc(OC)c(OC)cc3C2Cc2ccc(OC)c(OC)c2)cc1OC` (stereo not given), the IC50 was 3 µM.

`COc1cc2c3cc1Oc1cc(ccc1O)C[C@@H]1c4c(cc(OC)c(O)c4Oc4ccc(cc4)C[C@@H]3N(C)CC2)CC[N+]1(C)C`: the IC50 amounted to 3 µM.

In the case of `C=CC1CN2CCC1CC2[C@H](O)c1ccnc2ccccc12` (stereo not given in full), the IC50 came to 420 µM.

`Nc1c2ccccc2nc2ccccc12` [AMINACRINE]: inhibition was half-maximal at 120 µM (IC50).

The compound `C=C[C@H]1CN2CC[C@H]1C[C@@H]2[C@@H](O)c1ccnc2ccccc12` [CINCHONINE] had an IC50 of 370 µM.

With `C[N+](C)(C)CCCCCCCCCC[N+](C)(C)C` [DECAMETHONIUM], the IC50 was 450 µM.

With `Cc1cc(N)c2ccccc2[n+]1CCCCCCCCCC[n+]1c(C)cc(N)c2ccccc21` [DEQUALINIUM CHLORIDE], inhibition was half-maximal at 1.7 µM (IC50).

On to `CCCCOc1cc(C(=O)NCCN(CC)CC)c2ccccc2n1` [DIBUCAINE], for which half-maximal inhibition (IC50) required 470 µM.

The compound `CC[N+](CC)(CC)CCOc1cccc(OCC[N+](CC)(CC)CC)c1OCC[N+](CC)(CC)CC` [GALLAMINE] returned an IC50 of 12 µM.

Consider `C[N+](C)(C)CCCCCC[N+](C)(C)C` [HEXAMETHONIUM CHLORIDE], for which the half-maximal inhibitory concentration (IC50) was 2000 µM.

As to `CC(=O)O[C@H]1C[C@@H]2CC[C@@H]3[C@H](CC[C@@]4(C)[C@H]3C[C@H]([N+]3(C)CCCCC3)[C@@H]4OC(C)=O)[C@@]2(C)C[C@@H]1[N+]1(C)CCCCC1` [PANCURONIUM], the IC50 amounted to 3.5 µM.

For `COc1cc(NC(C)CCCN)c2ncccc2c1` (stereo not given) [PRIMAQUINE], 970 µM corresponded to half-maximal inhibition (IC50).

Consider `CCN(CC)CCCC(C)Nc1c2ccc(Cl)cc2nc2ccc(OC)cc12` (stereo not given) [QUINACRINE], for which the half-inhibitory concentration (IC50) was found to be 73 µM.

For the compound `C=C[C@H]1CN2CC[C@H]1C[C@@H]2[C@@H](O)c1ccnc2ccc(OC)cc12` [QUINIDINE], 240 µM corresponded to half-maximal inhibition (IC50).

On to `C=C[C@H]1CN2CC[C@H]1C[C@H]2[C@H](O)c1ccnc2ccc(OC)cc12` [QUININE], for which 150 µM corresponded to half-maximal inhibition (IC50).

`O=C1C[C@@H]2OCC=C3CN4CC[C@]56c7ccccc7N1[C@H]5[C@H]2[C@H]3C[C@H]46` [STRYCHNINE]: inhibition was half-maximal at 190 µM (IC50).

With `CC[N+](CC)(CC)CC` [TETRYLAMMONIUM], the IC50 stood at 7900 µM.

Turning to `c1ccc2c(c1)c1cc[n+]2Cc2ccc(cc2)Cc2ccc(cc2)C[n+]2ccc(c3ccccc32)NCCCCCCCCCCN1` [UCL-1530], the IC50 was found to be 2.6 µM.

Consider `CC(=O)O[C@H]1C[C@@H]2CC[C@@H]3[C@H](CC[C@@]4(C)[C@H]3C[C@H]([N+]3(C)CCCCC3)[C@@H]4OC(C)=O)[C@@]2(C)C[C@@H]1N1CCCCC1` [VECURONIUM], for which the IC50 stood at 4.5 µM.

The next assay can be described thus: Inhibition of I-apamin-sensitive SKCa channel of guinea-pig hepatocytes; 0.14+/-0.01. Format: cell-based, Cavia porcellus. The conditions noted are these: hepatocyte.
In turn, `c1ccc2c(c1)c1cc[n+]2CCCCC[n+]2ccc(c3ccccc32)NCCCCCN1` yielded a Ki of 0.00014 µM.
